# Laboratory results taken from patent US20150315188A1, “COMPOUNDS AND METHODS FOR TREATMENT OF HYPERTENSION” (MEDIVATION TECHNOLOGIES, INC., priority 2012, published 2015).
# Legend:
# [1] = target: T1, Human adrenergic α2B receptor (Homo sapiens, UniProt P18089); experiment: β-Arrestin GPCR functional assay, adrenergic α2B (Protocol B); assay type: cell-based; settings: β-arrestin, antagonist vs nor-epinephrine EC80; read-out: IC50 Adrenergic α2B
# T1 sequence (P18089 1-450): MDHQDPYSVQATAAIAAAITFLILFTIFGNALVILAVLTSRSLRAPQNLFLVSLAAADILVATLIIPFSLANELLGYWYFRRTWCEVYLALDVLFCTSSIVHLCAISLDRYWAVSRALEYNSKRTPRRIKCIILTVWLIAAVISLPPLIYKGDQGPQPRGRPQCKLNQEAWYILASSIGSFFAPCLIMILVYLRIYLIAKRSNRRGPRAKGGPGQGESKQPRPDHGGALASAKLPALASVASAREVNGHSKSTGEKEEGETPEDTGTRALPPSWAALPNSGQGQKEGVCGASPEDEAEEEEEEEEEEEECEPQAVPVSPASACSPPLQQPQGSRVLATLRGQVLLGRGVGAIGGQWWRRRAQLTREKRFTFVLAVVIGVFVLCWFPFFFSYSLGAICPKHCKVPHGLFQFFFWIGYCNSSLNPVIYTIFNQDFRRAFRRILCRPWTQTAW
# Experimental: To evaluate the activity of compounds in β-Arrestin GPCR functional assays, recombinant CHO cell line (DiscoveRX), over expressed with human adrenergic α2B receptor were used. The experiment was done with kit of DiscoveRX as per recommended protocol of the supplier. Cells were harvested from culture flask using cell dissociation solution (CDS) and plated at a density of 12,000 cells/well in CP reagent (supplied with the kit) in a half area 96-well white polystyrene plate. After 24 h incubation at 37° C., compounds at various concentrations in 1% (final) DMSO were charged to the cells for 30 min at 37° C. Active nor-epinephrine (-NE) at its EC80 concentrations (50 nM) were then added to the cells and incubated for another 90 min at 37° C. Detection mix was prepared by mixing of Path Hunter cell assay buffer, Emerald II solution and Galactone star solution in a ratio of 19:5:1 and incubated with the cells for 60 min at RT in the dark. The reading was taken in Envision at luminescence mode. Biochemical assay results are presented as the percent Inhibition in Table B2a, or IC50 values in Table B2b.
# [2] = target: T1, Human adrenergic α2B receptor; experiment: Radioligand binding, adrenergic α2B (Protocol Group B); parameters: purchased Milipore (Millipore); settings: Protocol Group B; for inhibition at 0.01 µM / Percentage inhibition of ligand binding, Adrenergic α2B (10 nM): 10 nM compound; for inhibition at 0.01 µM: read-out: Percentage inhibition of ligand binding, Adrenergic α2B (10 nM); for inhibition at 0.03 µM / Percentage inhibition of ligand binding, Adrenergic α2B (30 nM): 30 nM compound; for inhibition at 0.03 µM: read-out: Percentage inhibition of ligand binding, Adrenergic α2B (30 nM); for inhibition at 0.1 µM: 0.1 μM compound, read-out: Percentage inhibition of ligand binding, Adrenergic α2B (0.1 μM); for Ki: estimated Ki, read-out: Ki α2B; for Percentage inhibition of ligand binding, Adrenergic α2B (10 nM): 0.01 µM; for Percentage inhibition of ligand binding, Adrenergic α2B (30 nM): 0.03 µM
# How it was run: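 Recombinant human α2B receptor membranes incubated with compounds in 50 mM Tris-HCl pH 7.4, 5 mM MgCl2, 1 mM CaCl2, 0.2% BSA, 1% DMSO vehicle. Non-specific binding defined with 10 μM rauwolscine. Values are percent inhibition of specific binding or estimated Ki.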
# [3] = target: T2, Human adrenergic α2A receptor (Homo sapiens, UniProt P08913); experiment: Radioligand binding, adrenergic α2A (Protocol Group B); parameters: purchased Milipore (Millipore); settings: Protocol Group B; for Percentage inhibition of ligand binding, Adrenergic α2A (0.1 μM) / inhibition at 0.1 µM: 0.1 μM compound; for inhibition at 0.3 µM / Percentage inhibition of ligand binding, Adrenergic α2A (0.3 μM): 0.3 μM compound; for inhibition at 0.3 µM: read-out: Percentage inhibition of ligand binding, Adrenergic α2A (0.3 μM); for Ki: estimated Ki; for inhibition at 0.1 µM: read-out: Percentage inhibition of ligand binding, Adrenergic α2A (0.1 μM)
# T2 sequence (P08913 1-465): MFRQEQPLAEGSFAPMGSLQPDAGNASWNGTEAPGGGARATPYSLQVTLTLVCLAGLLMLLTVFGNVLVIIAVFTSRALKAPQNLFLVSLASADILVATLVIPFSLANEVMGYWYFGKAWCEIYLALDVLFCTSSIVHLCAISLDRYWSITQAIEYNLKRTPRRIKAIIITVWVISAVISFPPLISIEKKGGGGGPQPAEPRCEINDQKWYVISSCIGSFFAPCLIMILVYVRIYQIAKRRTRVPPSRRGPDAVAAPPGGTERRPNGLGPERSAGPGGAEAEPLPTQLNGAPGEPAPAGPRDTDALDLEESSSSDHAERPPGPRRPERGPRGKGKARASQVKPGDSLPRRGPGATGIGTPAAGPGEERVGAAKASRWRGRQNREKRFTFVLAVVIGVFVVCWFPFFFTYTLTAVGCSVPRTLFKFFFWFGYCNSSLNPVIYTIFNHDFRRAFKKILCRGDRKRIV
# How it was run: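 Membranes from recombinant cells expressing the receptor, in 50 mM Tris-HCl pH 7.4 with 5 mM MgCl2, 1 mM CaCl2, 0.2% BSA; compounds incubated with 2 nM [^3H]MK-912 for 60 min at 25° C. Nonspecific binding defined by 10 μM rauwolscine; filtration, counting; percent inhibition of specific binding, or estimated Ki.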
# [4] = target: T3, Human adrenergic α1B receptor (Homo sapiens, UniProt P35368); experiment: Radioligand binding, adrenergic α1B (Protocol Group B); parameters: purchased Milipore (Millipore); settings: Protocol Group B; for Percentage inhibition of ligand binding, Adrenergic α1B (0.1 μM) / inhibition at 0.1 µM: 0.1 μM compound; for inhibition at 0.3 µM / Percentage inhibition of ligand binding, Adrenergic α1B (0.3 μM): 0.3 μM compound; for inhibition at 0.3 µM: read-out: Percentage inhibition of ligand binding, Adrenergic α1B (0.3 μM); for inhibition at 0.1 µM: read-out: Percentage inhibition of ligand binding, Adrenergic α1B (0.1 μM)
# T3 sequence (P35368 1-520): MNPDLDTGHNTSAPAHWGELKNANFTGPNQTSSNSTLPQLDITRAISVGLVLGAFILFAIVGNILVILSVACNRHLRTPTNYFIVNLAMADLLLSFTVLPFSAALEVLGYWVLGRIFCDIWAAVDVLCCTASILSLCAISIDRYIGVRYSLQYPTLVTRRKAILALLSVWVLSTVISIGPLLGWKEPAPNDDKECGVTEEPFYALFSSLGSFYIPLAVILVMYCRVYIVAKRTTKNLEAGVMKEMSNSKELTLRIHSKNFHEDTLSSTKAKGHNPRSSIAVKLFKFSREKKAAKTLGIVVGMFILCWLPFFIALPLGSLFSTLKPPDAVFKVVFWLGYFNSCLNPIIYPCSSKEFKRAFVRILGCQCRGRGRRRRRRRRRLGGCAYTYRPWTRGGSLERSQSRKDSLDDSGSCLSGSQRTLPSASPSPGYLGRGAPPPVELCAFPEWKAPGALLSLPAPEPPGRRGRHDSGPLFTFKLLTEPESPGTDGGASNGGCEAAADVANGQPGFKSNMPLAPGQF
# How it was run: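 Recombinant human α1B membranes incubated with test compound and 0.3 nM [3H]prazosin, 60 min at 25 °C, in 50 mM Tris-HCl pH 7.4, 10 mM MgCl2, 1 mM EDTA; nonspecific binding with 10 μM prazosin. Filter-bound radioactivity counted; values are % inhibition of specific binding or estimated Ki.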
Compound,IC50 [1] [nM],inhibition at 0.01 µM [2] [%],inhibition at 0.03 µM [2] [%],inhibition at 0.1 µM [2] [%],Ki [2] [nM],"Percentage inhibition of ligand binding, Adrenergic α2A (0.1 μM) [3] [%]",inhibition at 0.3 µM [3] [%],Ki [3] [nM],"Percentage inhibition of ligand binding, Adrenergic α1B (0.1 μM) [4] [%]",inhibition at 0.3 µM [4] [%],Ki ([4]; estimated Ki) [nM],inhibition at 0.1 µM [3] [%],inhibition at 0.1 µM [4] [%],"Percentage inhibition of ligand binding, Adrenergic α2B (10 nM) [2] [%]","Percentage inhibition of ligand binding, Adrenergic α2B (30 nM) [2] [%]","Percentage inhibition of ligand binding, Adrenergic α2A (0.3 μM) [3] [%]","Percentage inhibition of ligand binding, Adrenergic α1B (0.3 μM) [4] [%]"
"Cc1ccc2c(c1)c1c(n2CC(C)(O)c2cccnc2)CC2CCCN2C1 (single isomer, unassigned) [38b]",237,38,72,90,7.16,16,42,291,15,33,179,,,,,,
"Cc1cc(F)c2c(c1)c1c(n2CC(C)(O)c2cccnc2)CC2CCCN2C1 (single isomer, unassigned) [61c]",313,51,77,92,5.4,,41,,,15,,2,4,,,,
"CC(O)(Cn1c2c(c3cc(Cl)cc(F)c31)CN1CCCC1C2)c1cccnc1 (single isomer, unassigned) [63c]",692,42,71,,12.4,,36,,,14,,8,8,,,,
"Cc1cc(F)cc2c3c(n(CC(C)(O)c4cccnc4)c12)CCN1CCCC31 (single isomer, unassigned) [75d]",381,,,,8.65,25,,,15,,,,,55,79,41,33
"Cc1cc(F)cc2c3c(n(CC(C)(O)c4cccnc4)c12)CC1CCCN1C3 (single isomer, unassigned) [76d]",261,51,74,,4.55,,30,,,11,,24,6,,,,
"CC(O)(Cn1c2c(c3cc(C(F)(F)F)ccc31)CN1CCCC1C2)c1cccnc1 (single isomer, unassigned) [85a]",832,9,42,,32.6,,-4,,,4,,-12,-9,,,,
"CC(O)(Cn1c2c(c3cc(Cl)cc(F)c31)CN1CCCC1C2)c1ccncc1 (single isomer, unassigned) [86c]",699,24,53,,13,,9,,,15,,-10,-5,,,,
"Cc1ccc2c(c1F)c1c(n2CC(C)(O)c2cccnc2)CCN2CCCC12 (single isomer, unassigned) [87a]",303,,,,20.6,19,,,13,,,,,30,63,33,27
"Cc1ccc2c(c1F)c1c(n2CC(C)(O)c2cccnc2)CCN2CCCC12 (single isomer, unassigned) [87b]",284,,,,23.8,31,,,16,,,,,37,66,53,35
"CC(O)(Cn1c2c(c3cc(F)cc(Cl)c31)C1CCCN1CC2)c1ccncc1 (single isomer, unassigned) [88a]",388,86,93,,1.45,52,,43.9,15,43,,,,,,72,
"CC(O)(Cn1c2c(c3cc(F)cc(Cl)c31)C1CCCN1CC2)c1ccncc1 (single isomer, unassigned) [88b]",166,,,,2.85,19,,,−1,,,,,70,90,44,33
"CC(O)(Cn1c2c(c3cc(F)cc(Cl)c31)C1CCCN1CC2)c1cccnc1 (single isomer, unassigned) [89c]",45.5,,,,7.6,24,,,0,,,,,54,78,40,22
